The nature of series [1]: Pharmacokinetic parameters for different drugs following single oral or intravenous administration in healthy subjects. Particulars: human, in vivo, 100 mg.
A short description of series [2]: Pharmacokinetic parameters for different drugs following multiple oral or intravenous administration in healthy subjects. The format is ADME, organism-based. Also on record: dose 200 mg/day, route oral. To be noted: human, in vivo, dosed compound id 68, dosed compound name IMIPRAMINE HYDROCHLORIDE, regimen Repeated dose, study dosing duration 4 weeks, tissue Plasma.

In general, bioavailability refers to dose-corrected exposure relative to a reference, in per cent. High values mean good availability, low ones poor availability. One may read the half-life as the time needed for the level to fall by half in the phase considered. Usually Cmax stands for the peak of the concentration-time curve. One may read the Tmax as the time at which the peak concentration occurs. Regarding `CN(C)CCCN1c2ccccc2CCc2ccccc21.Cl` [IMIPRAMINE HYDROCHLORIDE], in series [1] (iv), the Vd was found to be 18 L/kg, the bioavailability came to 42%, the dose excreted was 2% and the half-life is 16 h. The Cmax in series [2] (po, 200 mg/day) came out at 200 ng/mL. Besides, the Tmax in series [2] (dose 200 mg/day, route oral) is 2 to 6 h.
Regarding `NC[C@H]1O[C@H](O[C@H]2[C@H](O)[C@@H](O[C@H]3O[C@H](CO)[C@@H](O)[C@H](N)[C@H]3O)[C@H](N)C[C@@H]2N)[C@H](N)C[C@@H]1O` [TOBRAMYCIN], the Tmax in series [1] (im) came out at 0.3 h. For the same molecule, in series [1] (inhaled or intranasal), the bioavailability was found to be 9%. In series [1] (iv), the Vd was 0.33 L/kg, the clearance was 0.98 mL/min/kg, the dose excreted stood at 90% and the half-life is 2.2 h. Further, the highest level in series [1] (po, Cmax) (Cmax) was 4600 ng/mL.
